Experimental data published in US8580832B2, “Substituted phenoxy aminothiazolones as estrogen related receptor-α modulators” (Janssen Pharmaceutica N.V., priority 2007, dated 2013).

target: T1, ERR1 (also known as ERR-α or ERR-1) (Homo sapiens, UniProt P11474); test: TR-FRET assay: disruption of co-activator peptide binding to ERR1 LBD; format: biochemical; settings: 6His-tagged ERR1 LBD 6 nM, GST-SRC-2 peptide 6 nM, 25° C., 4-18 hours; average of 3 independent experiments
T1 construct: the ^6His-tagged-ERR1 LBD
T1 sequence (P11474 193-421 limits assumed): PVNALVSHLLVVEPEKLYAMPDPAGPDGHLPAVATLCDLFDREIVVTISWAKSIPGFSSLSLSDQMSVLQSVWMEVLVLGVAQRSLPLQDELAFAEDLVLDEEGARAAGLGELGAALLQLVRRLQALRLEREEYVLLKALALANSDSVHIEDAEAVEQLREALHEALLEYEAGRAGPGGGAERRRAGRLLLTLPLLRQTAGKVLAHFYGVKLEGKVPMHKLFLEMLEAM
How it was run: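 The 6His-ERR1 LBD and a GST-hSRC2 co-activator peptide were detected by α-GST Eu cryptate and α-6His-XL665 TR-FRET. Buffer was 25 mM Tris pH 8, 2.5 mM Hepes, 20 mM KCl, 1 mM DTT, 0.05 mg/mL BSA, equilibrated 4-18 h at 25° C. Dose-response curves were fitted hyperbolically and averaged over 3 independent experiments.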

Row | SMILES | EC50 [nM]
1 | COc1cc(/C=C2\SC(NCCN3CCCC3=O)=NC2=O)ccc1Oc1ccc(C#N)cc1Cl [Example 63, 3-Chloro-4-(2-methoxy-4-{4-oxo-2-[2-(2-oxo-pyrrolidin-1-yl)-ethylamino]-4H-thiazol-5-ylidenemethyl}-phenoxy)-benzonitrile] | 75
2 | COc1cc(/C=C2\SC(NC3CCN(C)CC3)=NC2=O)ccc1Oc1ccc(C#N)cc1C(F)(F)F [Compound 14, 4-{2-Methoxy-4-[2-(1-methyl-piperidin-4-ylamino)-4-oxo-4H-thiazol-5-ylidenemethyl]-phenoxy}-3-trifluoromethyl-benzonitrile] | 13
3 | COc1cc(/C=C2\SC(N3CCC(O)C3)=NC2=O)ccc1Oc1ccc(C#N)cc1C(F)(F)F (centres unmarked) [Example 39, 4-{4-[2-(3-Hydroxy-pyrrolidin-1-yl)-4-oxo-4H-thiazol-5-ylidenemethyl]-2-methoxy-phenoxy}-3-trifluoromethyl-benzonitrile] | 9
4 | N#Cc1ccc(Oc2ccc(/C=C3\SC(NCCCN4CCCC4=O)=NC3=O)cc2F)c(C(F)(F)F)c1 [Example 51, 4-(2-Fluoro-4-{4-oxo-2-[3-(2-oxo-pyrrolidin-1-yl)-propylamino]-4H-thiazol-5-ylidenemethyl}-phenoxy)-3-trifluoromethyl-benzonitrile] | 29
5 | COCCNC1=NC(=O)/C(=C/c2ccc(Oc3ccc(C#N)cc3C(F)(F)F)c(OC)c2)S1 [Compound 18, 4-{2-Methoxy-4-[2-(2-methoxy-ethylamino)-4-oxo-4H-thiazol-5-ylidenemethyl]-phenoxy}-3-trifluoromethyl-benzonitrile] | 112
6 | COc1cc(/C=C2\SC(N3CCOCC3)=NC2=O)ccc1Oc1ccc(C#N)cc1C(F)(F)F [Compound 5, 4-[2-Methoxy-4-(2-morpholin-4-yl-4-oxo-4H-thiazol-5-ylidenemethyl)-phenoxy]-3-trifluoromethyl-benzonitrile] | 20
7 | CC1CN(C2=NC(=O)/C(=C/c3ccc(Oc4ccc(C#N)cc4C(F)(F)F)c(F)c3)S2)CC(C)O1 (centres unmarked) [Example 46, 4-{4-[2-(2,6-Dimethyl-morpholin-4-yl)-4-oxo-4H-thiazol-5-ylidenemethyl]-2-fluoro-phenoxy}-3-trifluoromethyl-benzonitrile] | 19
8 | COC(=O)c1ccc(Oc2ccc(/C=C3\SC(N4CC(C(=O)O)C4)=NC3=O)cc2OC)c(C(F)(F)F)c1 [Example 52, 1-{5-[3-Methoxy-4-(4-methoxycarbonyl-2-trifluoromethyl-phenoxy)-benzylidene]-4-oxo-4,5-dihydro-thiazol-2-yl}-azetidine-3-carboxylic acid] | 2
9 | COC(=O)[C@H](CO)NC1=NC(=O)/C(=C/c2ccc(Oc3ccc(C#N)cc3C(F)(F)F)c(OC)c2)S1 [Example 68, 2-{5-[4-(4-Cyano-2-trifluoromethyl-phenoxy)-3-methoxy-benzylidene]-4-oxo-4,5-dihydro-thiazol-2-ylamino}-3-hydroxy-propionic acid methyl ester] | 19
10 | COc1cc(/C=C2\SC(N(C)CCN(C)C)=NC2=O)ccc1Oc1ccc(C#N)cc1C(F)(F)F [Compound 11, 4-(4-{2-[(2-Dimethylamino-ethyl)-methyl-amino]-4-oxo-4H-thiazol-5-ylidenemethyl}-2-methoxy-phenoxy)-3-trifluoromethyl-benzonitrile] | 19
11 | COc1cc(/C=C2\SC(NCCN3CCNC(=O)C3)=NC2=O)ccc1Oc1ccc(C#N)cc1C(F)(F)F [Example 105, 4-(2-Methoxy-4-{4-oxo-2-[2-(3-oxo-piperazin-1-yl)-ethylamino]-4H-thiazol-5-ylidenemethyl}-phenoxy)-3-trifluoromethyl-benzonitrile] | 8
12 | COc1cc(/C=C2\SC(NCC(=O)O)=NC2=O)ccc1Oc1ccc(C#N)cc1C(F)(F)F [Example 76, {5-[4-(4-Cyano-2-trifluoromethyl-phenoxy)-3-methoxy-benzylidene]-4-oxo-4,5-dihydro-thiazol-2-ylamino}-acetic acid] | 16
13 | COc1cc(/C=C2\SC(NCC3CNCCO3)=NC2=O)ccc1Oc1ccc(C#N)cc1C(F)(F)F (centres unmarked) [Example 80, 4-(2-Methoxy-4-{2-[(morpholin-2-ylmethyl)-amino]-4-oxo-4H-thiazol-5-ylidenemethyl}-phenoxy)-3-trifluoromethyl-benzonitrile] | 35

The remaining compounds from weak to strong by EC50, led by results:

Row | EC50 [nM] | SMILES
14 | 140 | COc1cc(/C=C2\SC(N3CCNC(=O)C3)=NC2=O)ccc1Oc1ccc(C(F)(F)F)cc1C(F)(F)F [Example 59, 4-{5-[4-(2,4-Bis-trifluoromethyl-phenoxy)-3-methoxy-benzylidene]-4-oxo-4,5-dihydro-thiazol-2-yl}-piperazin-2-one]
15 | 74 | COC(=O)c1ccc(Oc2ccc(/C=C3\SC(N4CCNC(=O)C4)=NC3=O)cc2OC)c(C(F)(F)F)c1 [Example 54, 4-{2-Methoxy-4-[4-oxo-2-(3-oxo-piperazin-1-yl)-4H-thiazol-5-ylidenemethyl]-phenoxy}-3-trifluoromethyl-benzoic acid methyl ester]
16 | 47 | N#Cc1ccc(Oc2ccc(/C=C3\SC(N4CCCC(O)C4)=NC3=O)cc2F)c(C(F)(F)F)c1 (centres unmarked) [Example 103, 4-{2-Fluoro-4-[2-(3-hydroxy-piperidin-1-yl)-4-oxo-4H-thiazol-5-ylidenemethyl]-phenoxy}-3-trifluoromethyl-benzonitrile]
17 | 42 | COC(=O)c1ccc(Oc2ccc(/C=C3\SC(N4CCCC(O)C4)=NC3=O)cc2OC)c(C(F)(F)F)c1 (centres unmarked) [Example 53, 4-{4-[2-(3-Hydroxy-piperidin-1-yl)-4-oxo-4H-thiazol-5-ylidenemethyl]-2-methoxy-phenoxy}-3-trifluoromethyl-benzoic acid methyl ester]
18 | 39 | CCOc1cc(/C=C2\SC(N3CCNC(=O)C3)=NC2=O)ccc1Oc1ccc(C#N)cc1C(F)(F)F [Example 57, 4-{2-Ethoxy-4-[4-oxo-2-(3-oxo-piperazin-1-yl)-4H-thiazol-5-ylidenemethyl]-phenoxy}-3-trifluoromethyl-benzonitrile]
19 | 25 | COc1cc(/C=C2\SC(N(CCO)CCO)=NC2=O)ccc1Oc1ccc(C#N)cc1C(F)(F)F [Compound 12, 4-(4-{2-[Bis-(2-hydroxy-ethyl)-amino]-4-oxo-4H-thiazol-5-ylidenemethyl}-2-methoxy-phenoxy)-3-trifluoromethyl-benzonitrile]
20 | 24 | COc1cc(/C=C2\SC(N3CCCC(O)C3)=NC2=O)ccc1Oc1ccc(C(F)(F)F)cc1C(F)(F)F (centres unmarked) [Example 58, 5-[4-(2,4-Bis-trifluoromethyl-phenoxy)-3-methoxy-benzylidene]-2-(3-hydroxy-piperidin-1-yl)-thiazol-4-one]
21 | 22 | CN1CCN(CCNC2=NC(=O)/C(=C/c3ccc(Oc4ccc(C#N)cc4C(F)(F)F)c(F)c3)S2)CC1 [Example 104, 4-(2-Fluoro-4-{2-[2-(4-methyl-piperazin-1-yl)-ethylamino]-4-oxo-4H-thiazol-5-ylidenemethyl}-phenoxy)-3-trifluoromethyl-benzonitrile]
22 | 18 | N#Cc1ccc(Oc2ccc(/C=C3\SC(N(CCO)CCO)=NC3=O)cc2F)c(C(F)(F)F)c1 [Example 41, 4-(4-{2-[Bis-(2-hydroxy-ethyl)-amino]-4-oxo-4H-thiazol-5-ylidenemethyl}-2-fluoro-phenoxy)-3-trifluoromethyl-benzonitrile]
23 | 16 | CNC1=NC(=O)/C(=C/c2ccc(Oc3ccc(C#N)cc3C(F)(F)F)c(OC)c2)S1 [Example 77, 4-[2-Methoxy-4-(2-methylamino-4-oxo-4H-thiazol-5-ylidenemethyl)-phenoxy]-3-trifluoromethyl-benzonitrile]
24 | 15 | COc1cc(/C=C2\SC(NCCN3CCOCC3)=NC2=O)ccc1Oc1ccc(C#N)cc1C(F)(F)F [Example 33, 4-{2-Methoxy-4-[2-(2-morpholin-4-yl-ethylamino)-4-oxo-4H-thiazol-5-ylidenemethyl]-phenoxy}-3-trifluoromethyl-benzonitrile]
25 | 10 | N#Cc1ccc(Oc2ccc(/C=C3\SC(NCc4nnn[nH]4)=NC3=O)cc2F)c(C(F)(F)F)c1 [Example 108, 4-(2-Fluoro-4-{4-oxo-2-[(1H-tetrazol-5-ylmethyl)-amino]-4H-thiazol-5-ylidenemethyl}-phenoxy)-3-trifluoromethyl-benzonitrile]
26 | 9 | COc1cc(/C=C2\SC(N(C)CC(O)CO)=NC2=O)ccc1Oc1ccc(C#N)cc1C(F)(F)F (centres unmarked) [Compound 23, 4-(4-{2-[(2,3-Dihydroxy-propyl)-methyl-amino]-4-oxo-4H-thiazol-5-ylidenemethyl}-2-methoxy-phenoxy)-3-trifluoromethyl-benzonitrile]
27 | 9 | CCS(=O)(=O)N1CCN(C2=NC(=O)/C(=C/c3ccc(Oc4ccc(C#N)cc4C(F)(F)F)c(OC)c3)S2)CC1 [Example 38, 4-{4-[2-(4-Ethanesulfonyl-piperazin-1-yl)-4-oxo-4H-thiazol-5-ylidenemethyl]-2-methoxy-phenoxy}-3-trifluoromethyl-benzonitrile]
28 | 8 | COc1cc(/C=C2\SC(NCCN3CCCC3=O)=NC2=O)ccc1Oc1ccc(C#N)cc1C(F)(F)F [Example 36, 4-(2-Methoxy-4-{4-oxo-2-[2-(2-oxo-pyrrolidin-1-yl)-ethylamino]-4H-thiazol-5-ylidenemethyl}-phenoxy)-3-trifluoromethyl-benzonitrile]
29 | 5 | COc1cc(/C=C2\SC(NCCC3CCOCC3)=NC2=O)ccc1Oc1ccc(C#N)cc1C(F)(F)F [Example 109, 4-(2-Methoxy-4-{4-oxo-2-[2-(tetrahydro-pyran-4-yl)-ethylamino]-4H-thiazol-5-ylidenemethyl}-phenoxy)-3-trifluoromethyl-benzonitrile]
